Assay results from patent US4250170A, “Antibacterial agents Bu-2349A and B and method of using same” (Bristol-Myers Company, priority 1979, dated 1981).
≈ marks a conversion by molar mass, not a printed value.

Experiments:
[1] = test system: Staphylococcus aureus Smith (Sa-2); assay: MIC, two-fold agar dilution; assay type: cell-based; settings: 18 h, Table 3, Mueller-Hinton agar, 10^-4 dilution
Proteus vulgaris (Pv-1) = assay: MIC, two-fold agar dilution; assay type: cell-based; settings: 18 h, Table 3, Mueller-Hinton agar, 10^-4 dilution
[2] = test system: Staphylococcus epidermidis (Si-2), ANT (4'); assay: MIC, two-fold agar dilution; assay type: cell-based; settings: 18 h, Table 3, Mueller-Hinton agar, 10^-4 dilution, enzyme ANT (4')
[3] = test system: Enterobacter cloacae (El-35), AAC(3)-3; assay: MIC, two-fold agar dilution; assay type: cell-based; settings: 18 h, Table 3, Mueller-Hinton agar, 10^-4 dilution, enzyme AAC(3)-3
solubility = assay type: physicochemical; settings: hydrochloride salt
[4] = test system: Streptococcus viridans (Sv-1); assay: MIC, two-fold agar dilution; assay type: cell-based; settings: 18 h, Table 3, GC agar, 10^-2 dilution
[5] = test system: Proteus stuartii (Ps-2), AAC(2'); assay: MIC, two-fold agar dilution; assay type: cell-based; settings: 18 h; Table 3; Mueller-Hinton agar, 10^-4 dilution; enzyme AAC(2')
Proteus rettgeri (Pr-2) = assay: MIC, two-fold agar dilution; assay type: cell-based; settings: Providencia rettgeri, 18 h; Table 3; Mueller-Hinton agar, 10^-4 dilution
acute LD50 in mice = settings: mouse, in vivo
[6] = test system: Escherichia coli (Ec-49), APH(3')-2; assay: MIC, two-fold agar dilution; assay type: cell-based; settings: 18 h, Table 3, Mueller-Hinton agar, 10^-4 dilution, enzyme APH(3')-2
[7] = test system: Streptococcus pneumoniae (Dp-4); assay: MIC, two-fold agar dilution; assay type: cell-based; settings: 18 h, Table 3, GC agar, 10^-2 dilution
[8] = test system: Serratia marcescens (Sm-2); assay: MIC, two-fold agar dilution; assay type: cell-based; settings: 18 h, Table 3, Mueller-Hinton agar, 10^-4 dilution
[9] = test system: Peptococcus aerogenes ATCC 14963 (Pe-101); assay: MIC against anaerobic bacteria; assay type: cell-based; settings: Peptoniphilus asaccharolyticus, ATCC14963, 18 h; Table 4; GAM Medium, pH 7
[10] = test system: Clostridium perfringens (Cp-1); assay: microbe, parasite or virus in culture; assay type: cell-based; settings: 18 h, pH 7
[11] = test system: Clostridium chauvoei (Ch-1); assay: MIC against anaerobic bacteria; assay type: cell-based; settings: 18 h, Table 4, GAM Medium, pH 7
Method: (§1) The minimum inhibitory concentrations (MIC) of Bu-2349A and B were determined against a wide variety of bacteria by the two-fold agar dilution method. Mueller-Hinton agar medium was generally used for the determination of bacterial MIC except for species of Streptococcus, Neisseria and Hemophilus for which Gonococcus agar medium (GC agar, Nissui Co., Tokyo) was used. Gifu anaerobe agar medium (GAM agar, Eiken Co., Tokyo) was used for anaerobic bacteria. The MIC's were determined after overnight incubation at 37° C. with an initial inoculum equivalent to a 10^-4 dilution of an 18-hour culture for the aerobic and anaerobic bacteria, except for Streptococcus, Neisseria and Hemophilus for which a 10^-2 dilution was used.

[12] = test system: Propionibacterium acnes (Pc-102); assay: MIC against anaerobic bacteria; assay type: cell-based; settings: Cutibacterium acnes, 18 h; Table 4; GAM Medium, pH 7
Method: as §1

[13] = test system: Mycobacterium ranae ATCC 110 (Mr-1); assay: MIC, two-fold agar dilution; assay type: cell-based; settings: ATCC110, 18 h, Table 3, Mueller-Hinton agar, 10^-4 dilution
[14] = test system: Escherichia coli (Ec-9), AAC(6')-1; assay: MIC, two-fold agar dilution; assay type: cell-based; settings: 18 h, Table 3, Mueller-Hinton agar, 10^-4 dilution, enzyme AAC(6')-1
[15] = test system: Mycobacterium phlei D88 (Mp-1); assay: MIC, two-fold agar dilution; assay type: cell-based; settings: Mycolicibacterium phlei, 18 h; Table 3; Mueller-Hinton agar, 10^-4 dilution
Mycobacterium 607 (M6-1) = assay: MIC, two-fold agar dilution; assay type: cell-based; settings: 18 h, Table 3, Mueller-Hinton agar, 10^-4 dilution
[16] = mouse blood level, paper disc-agar plate assay; assay type: in vivo; settings: mice, im, 50 mg./kg.
Method: Blood levels were determined in mice following intramuscular administration of Bu-2349A at a dose of 50 mg./kg. Blood samples were collected from orbital sinuses and assayed by the paper disc-agar plate method using B. subtilis PCI 219 as the test organism.

[17] = test system: Bacteroides fragilis (Bf-1); assay: MIC against anaerobic bacteria; assay type: cell-based; settings: 18 h, Table 4, GAM Medium, pH 7
[18] = test system: Escherichia coli (Ec-62), AAC(3)- 1; assay: MIC, two-fold agar dilution; assay type: cell-based; settings: 18 h, Table 3, Mueller-Hinton agar, 10^-4 dilution, enzyme AAC(3)- 1
[19] = test system: Escherichia coli NIHJ (Ec-1); assay: MIC, two-fold agar dilution; assay type: cell-based; settings: 18 h, Table 3, Mueller-Hinton agar, 10^-4 dilution
[20] = test system: Bacteroides fragilis (Bf-7); assay: MIC against anaerobic bacteria; assay type: cell-based; settings: 18 h, Table 4, GAM Medium, pH 7
[21] = test system: S. aureus, E. coli, K. pneumoniae, P. vulgaris and P. mirabilis; assay: experimental infections in mice, overall statement; assay type: in vivo; settings: im
Method: The in vivo antibacterial activity of Bu-2349A was determined by experimental infections in mice. Mice were challenged via the intraperitoneal route with a 100 X LD50 dose of the pathogens in a 5% suspension of hog gastric mucin (American Laboratories, Omaha, Neb.). Bu-2349A was administered by the intramuscular route immediately after the bacterial challenge.

C=C1OC(OC2C(CO)OC(Oc3ccc(C(=O)NCCCNCCCCNCCCCN)cc3)C2O)C(O)C(OC2OC(CO)C(OC3OC(C)C(N)C(O)C3NC(=O)C(C)N)C(O)C2O)C1O (centres unmarked) [Bu-2349A]
MIC [1]: 3.1 µg/mL (≈ 3.13 µM)
MIC (Proteus vulgaris (Pv-1)): 1.6 µg/mL (≈ 1.62 µM)
MIC [2]: 3.1 µg/mL (≈ 3.13 µM)
MIC [3]: 3.1 µg/mL (≈ 3.13 µM)
solubility in methanol, ethanol, dimethylsulfoxide and dimethylformamide (solubility; methanol, ethanol, dimethylsulfoxide and dimethylformamide): slightly soluble
solubility in other common organic solvents (solubility; other common organic solvents): practically insoluble
solubility in water (solubility; water): soluble
MIC [4]: > 100 µg/mL
MIC [5]: 1.6 µg/mL (≈ 1.62 µM)
MIC (Proteus rettgeri (Pr-2)): 0.8 µg/mL (≈ 0.808 µM)
LD50 (acute LD50 in mice; im, intramuscular): 315 mg/kg
LD50 (acute LD50 in mice; intravenous): 35 mg/kg
MIC [6]: 1.6 µg/mL (≈ 1.62 µM)
MIC [7]: > 100 µg/mL
MIC [8]: 25 µg/mL (≈ 25.2 µM)
MIC [9]: > 100 µg/mL
MIC [10]: > 100 µg/mL
MIC [11]: > 100 µg/mL
MIC [12]: 12.5 µg/mL (≈ 12.6 µM)
MIC [13]: 3.1 µg/mL (≈ 3.13 µM)
MIC [14]: 0.8 µg/mL (≈ 0.808 µM)
MIC [15]: 3.1 µg/mL (≈ 3.13 µM)
MIC (Mycobacterium 607 (M6-1)): 3.1 µg/mL (≈ 3.13 µM)
antibiotic activity in blood after 2 hours ([16]; after 2 hours): No antibiotic activity was detected
elimination from the blood stream ([16]; after the peak): rapid elimination from the blood stream
concentration at 0.25 h ([16]; mouse, blood, 15 minutes): 15000 ng/mL
concentration at 0.5 h ([16]; mouse, blood, 30 minutes): 12000 ng/mL
concentration at 1 h ([16]; mouse, blood, 60 minutes): 2800 ng/mL
concentration at 2 h ([16]; mouse, blood, 120 minutes): > 1000 ng/mL
Tmax ([16]; mouse, blood, read-out: time of peak blood level (converted)): 15 min
MIC [17]: > 100 µg/mL
MIC [18]: 1.6 µg/mL (≈ 1.62 µM)
MIC [19]: 1.6 µg/mL (≈ 1.62 µM)
MIC [20]: > 100 µg/mL
protection against systemic lethal infections [21]: good protection
